Structures are written as SMILES.

For the compound `CCC(Nc1nnnn1-c1ccccc1)C(=O)O` (configuration not stated), the melting point fell in the range of 149 to 151 °C.

Take `O=[N+]([O-])c1cc(S(=O)(=O)Nc2ccccc2)ccc1Cl`: the melting point was 87 to 89 °C.

In turn, `O=C(O)C1CC2CCCCC2N1C(=O)c1ccc(F)cc1` (configuration not stated) had a melting point of 147 to 149 °C.

On to `Cc1cc(COc2ccc(C=O)cc2)oc1C(=O)O`, for which the melting point is 179 to 181 °C.

`O=C(O)CCNS(=O)(=O)C=Cc1ccccc1` gave a melting point of 119 to 123 °C.

Compound `CCOC(=O)c1cnn(-c2ccc(C(=O)O)cc2)c1C(F)(F)F` had a melting point of 175 to 177 °C.

On to `Oc1ccc2ccc(C(F)(F)F)nc2c1`, for which the melting point is 255 to 257 °C.

For `CCOC(=O)c1csc(NC)n1`, the melting point is 115 to 117 °C.

Regarding `ClCc1ccc(-n2cccn2)cc1`, the melting point lay in the range of 57 to 59 °C.

`Nc1cc(-c2ccc(Cl)cc2)no1` had a melting point of 164 to 166 °C.

For the compound `CC(C)C(Br)C(=O)NC1CCCCCC1` (configuration not stated), the melting point was 119 to 121 °C.

`O=C(c1cc(Cl)ccn1)N1CCCCC1` yielded a melting point of 60 to 62 °C.

Compound `C#CCOc1ccc(C(=O)O)cc1` registered a melting point of 216 to 218 °C.

For the compound `NCCCN1CCCC(C(N)=O)C1` (configuration not stated), the melting point was 71 to 73 °C.

As for `CC(C)c1nnn[nH]1`, the melting point was 104 to 106 °C.

Compound `C#Cc1nc2ccccc2n1C` registered a melting point of 82 to 84 °C.

`NCc1cc(=O)n2ccccc2n1`: the melting point fell in the range of 123 to 125 °C.

As for `Cc1ccc(S(=O)(=O)NC(C)(C)C)cc1N`, the melting point was in the range of 124 to 126 °C.

`O=c1[nH]c(-c2cnccn2)no1` registered a melting point of 232 to 234 °C.

On to `O=C(O)c1cnn(-c2ccc([N+](=O)[O-])cc2)c1`, for which the melting point was 258 to 260 °C.

In turn, `OC1CCCc2c[nH]nc21` (configuration not stated) had a melting point of 107 to 109 °C.

In the case of `COc1ccccc1C(N)c1nccn1C` (configuration not stated), the melting point is 78 to 80 °C.

In the case of `Clc1nc(-c2ccccc2)ns1`, the melting point lay within 51 to 53 °C.

Regarding `CC(C)NC(=O)CNS(=O)(=O)CCC(=O)O`, the melting point lay in the range of 125 to 127 °C.

The compound `COc1ccc2oc(C(C)=O)c(C)c2c1` came in with a melting point of 96 to 98 °C.

Regarding `C=CS(=O)(=O)c1cccc(Br)c1`, the melting point is 50 to 52 °C.

In the case of `Oc1ccc2cccc(O)c2n1`, the melting point was 293 to 295 °C.

Turning to `Cc1nc(-c2cccc(NC(=O)OCC(F)(F)F)c2)cs1`, the melting point was in the range of 94 to 96 °C.

`CCOc1cc(/C=C(\C(=O)O)c2ccccc2)ccc1O` displayed a melting point of 186 to 188 °C.

Compound `Cn1c(C(=O)O)cc2ccccc21` gave a melting point of 212 to 213 °C.

`Nc1ccc(CN2C(=O)CCC2=O)cc1`: the melting point is 141 to 143 °C.

`O=C1CSC(N2CCCCC2)=N1` had a melting point of 76 to 80 °C.

Consider `CCOC(=O)c1c(C2CC2)csc1N`, for which the melting point lay in the range of 70 to 72 °C.

As for `O=C(O)CCc1nc(-c2nnc[nH]2)no1`, the melting point was in the range of 246 to 248 °C.

In the case of `CC(=O)c1sc(NCCCC(=O)O)nc1C`, the melting point lay in the range of 140 to 142 °C.

`O=C(O)C1CCCCN1Cc1ccc(F)cc1` (configuration not stated) had a melting point of 218 to 220 °C.

In turn, `CC(=O)Nc1cccc(C(=O)O)n1` displayed a melting point of 226 to 228 °C.

In turn, `CCOC(=O)c1sc(-c2ccc(Br)cc2)cc1N` registered a melting point of 105 to 106 °C.

For the compound `N#CC=C(Cl)c1ccccc1`, the melting point lay in the range of 32 to 34 °C.

Compound `Cc1ccccc1-n1cc(C(=O)O)cn1` returned a melting point of 106 to 108 °C.

With `C#CCNC(=O)Nc1cc(C)on1`, the melting point fell in the range of 163 to 165 °C.

In turn, `CC(C)CC(N)C(=O)Nc1nccs1` (configuration not stated) displayed a melting point of 99 to 101 °C.

`COc1cccc(NC(=O)c2ccccc2N(C)C(=O)CCC(=O)O)c1` gave a melting point of 125 to 127 °C.

Consider `CC(C)(C)OC(=O)N1CCCC(C(=O)O)C1` (configuration not stated), for which the melting point lay in the range of 160 to 162 °C.

Consider `CC(=O)CC(=O)Nc1cccc(Br)c1`, for which the melting point was in the range of 108 to 110 °C.

In turn, `Cc1ccccc1-n1nc(-c2ccccc2)cc1N` registered a melting point of 109 to 111 °C.

Turning to `Cc1c(C(=O)O)oc2c(F)cc(F)cc12`, the melting point fell in the range of 339 to 341 °C.

The compound `O=C(O)CCCC(=O)Nc1cccnc1N1CCCC1` registered a melting point of 142 to 144 °C.

On to `Nc1nc(N)nc(CO)n1`, for which the melting point was in the range of 269 to 271 °C.

The compound `C=Cc1nc2sc3c(c2c(=O)[nH]1)CCCC3` came in with a melting point of 209 to 211 °C.

Regarding `CS(=O)(=O)Cc1noc(C(Cl)(Cl)Cl)n1`, the melting point lay within 110 to 112 °C.

For the compound `N#Cc1ccccc1NC(=O)CCCC(=O)O`, the melting point is 139 to 141 °C.

Take `COc1ccc(S(=O)(=O)N2CCN(C)CC2)cc1N`: the melting point was in the range of 107 to 109 °C.

`CCOC(=O)Cc1nc2cc(Cl)ccc2s1` showed a melting point of 79 to 81 °C.

The compound `C=CCn1c(S)nnc1C1CCS(=O)(=O)C1` (configuration not stated) registered a melting point of 101 to 103 °C.

On to `C#CCNC(=O)c1cccc(C#N)c1`, for which the melting point fell in the range of 132 to 134 °C.

As to `O=C(O)c1cc(Oc2ccccc2)ccn1`, the melting point is 179 to 181 °C.

For the compound `CCN(c1ccccc1)S(=O)(=O)c1cc(C(=O)O)ccc1C`, the melting point was 160 to 162 °C.

As to `O=C(c1cccnc1)c1cccc(Cl)c1`, the melting point fell in the range of 47 to 49 °C.

Consider `O=C(O)c1cc2c([nH]c1=O)CCC2`, for which the melting point fell in the range of 273 to 275 °C.

Compound `CC(=O)Nc1cc(S(=O)(=O)Cl)ccc1O` displayed a melting point of 289 to 291 °C.

The compound `Cn1cc(C(=O)O)c(=O)c2cc(Cl)ccc21` displayed a melting point of 302 to 304 °C.

Compound `COCc1nnc(-c2cccc(C(=O)O)c2)o1` gave a melting point of 139 to 141 °C.

On to `CC1(C)CC(C)(C)c2cc(O)ccc21`, for which the melting point is 99 to 101 °C.

For `Nc1ccc(N2CCNC(=O)C2)cc1`, the melting point was 167 to 169 °C.

Regarding `CC(C)(C)OC(=O)N1CCN2C(=O)NCC2C1` (configuration not stated), the melting point lay in the range of 218 to 220 °C.

On to `COCCn1nnc(C(=O)O)c1C(F)(F)F`, for which the melting point lay within 55 to 57 °C.

For `CC(=O)Nc1ccc(Cl)cc1N`, the melting point lay in the range of 141 to 143 °C.

As to `Cc1cc(C(=O)C(C)Cl)c(C)n1-c1ccc(OC(F)F)cc1` (configuration not stated), the melting point was in the range of 92 to 96 °C.

For `Nc1ccc(S(=O)(=O)NCc2ccc(Cl)cc2)cc1`, the melting point lay in the range of 174 to 176 °C.

The compound `CC(C)COc1ccc(C(C)(C)C(=O)O)cc1` yielded a melting point of 107 to 109 °C.

Regarding `CN1CCN(c2ccc(N)cn2)CC1`, the melting point was in the range of 109 to 111 °C.

In the case of `O=[N+]([O-])c1cc(Cl)cc(Br)c1O`, the melting point was 126 to 128 °C.

In the case of `N#Cc1ccc(NCCO)cc1`, the melting point fell in the range of 84 to 86 °C.

`CN(C)C(=O)COc1cccc(C(=O)O)c1` returned a melting point of 193 to 195 °C.

In the case of `COC(=O)c1cccc(S(N)(=O)=O)c1`, the melting point fell in the range of 131 to 133 °C.

With `Cc1c(Cl)ccc2ccc(Cl)nc12`, the melting point lay within 92 to 94 °C.

Regarding `O=C(O)c1cc(/C=C/c2ccc(Cl)cc2)nc2ccc(Br)cc12`, the melting point is 320 to 322 °C.

`O=C1c2ccc(S(=O)(=O)Cl)cc2CCC1Cl` (configuration not stated) registered a melting point of 124 to 126 °C.

Take `Cc1ccc(C(=O)O)cc1S(N)(=O)=O`: the melting point fell in the range of 275 to 277 °C.

`Nc1cc(N2CCCC2=O)ccc1F` showed a melting point of 106 to 108 °C.

The compound `O=C1CCc2ccc(Cl)cc21` had a melting point of 79 to 81 °C.

As for `O=[N+]([O-])c1ccc(OCc2ccco2)nc1`, the melting point lay in the range of 87 to 89 °C.

`Cc1ccc(CN(C)C(N)=O)cc1` displayed a melting point of 146 to 148 °C.

Take `O=C(O)c1ccc(Cl)c(I)c1`: the melting point was in the range of 212 to 214 °C.

`N#Cc1csc(C=O)c1` gave a melting point of 84 to 86 °C.

For the compound `CCC(C)(C)NC(=O)C(Br)C(C)C` (configuration not stated), the melting point fell in the range of 132 to 134 °C.

The compound `Cc1ccc(-c2cc(N)on2)cc1` displayed a melting point of 148 to 150 °C.

Take `Oc1cccc(-n2cnnn2)c1`: the melting point was in the range of 174 to 176 °C.

`CN1CCCC[C@@H]1C(=O)O` had a melting point of 219 to 221 °C.

The compound `O=C(O)c1cc2c(F)cccc2s1` yielded a melting point of 214 to 216 °C.

The compound `Cc1nnc(N2CCCC2)c(C#N)c1C` showed a melting point of 146 to 148 °C.

The compound `Cc1nc(-c2ccccc2)ccc1C(=O)O` yielded a melting point of 190 to 192 °C.

The compound `Nc1ccc2oc(-c3cc(F)ccc3Br)nc2c1` gave a melting point of 159 to 161 °C.

Turning to `CCOC(=O)c1sc(O)nc1C`, the melting point lay in the range of 171 to 173 °C.

`O=C(O)C1CC(O)CN1C(=O)c1ccc(F)cc1` (configuration not stated): the melting point was 206 to 208 °C.

Regarding `O=C(O)c1cnc(-c2ccncc2)s1`, the melting point is 307 to 309 °C.

`CC(C)NC(C)(C)CO` yielded a melting point of 42 to 44 °C.

Turning to `CCc1cc(N)c2ccccc2n1`, the melting point is 152 to 154 °C.

In turn, `CS(=O)(=O)Nc1ccccc1CC(=O)O` had a melting point of 126 to 128 °C.

Compound `Nc1ccc(S)c(Cl)c1` registered a melting point of 78 to 80 °C.

In the case of `O=C(O)CCc1cc(Cl)cs1`, the melting point is 69 to 71 °C.

Take `COC(=O)CCc1c(C)nn(-c2ccc(C(=O)O)cc2)c1C`: the melting point lay within 166 to 175 °C.

In the case of `c1ccc(NC2CCCCC2)nc1`, the melting point was in the range of 123 to 125 °C.

On to `N#CCC(=O)c1ccc(F)c(F)c1`, for which the melting point fell in the range of 67 to 69 °C.

Compound `O=C(CO)Nc1ccc(Oc2ccccc2)cc1` showed a melting point of 149 to 151 °C.

On to `OCCSc1ccnc2cc(Cl)ccc12`, for which the melting point fell in the range of 111 to 113 °C.

As to `NS(=O)(=O)C1CCNC1` (configuration not stated), the melting point lay within 115 to 117 °C.

In turn, `CC(C)(C)OC(=O)Nc1csc(Br)n1` registered a melting point of 104 to 106 °C.

In the case of `CC(=O)NC1(c2noc(CCl)n2)CCCC1`, the melting point was 74 to 76 °C.

Turning to `N#Cc1ccc(S)cc1C(F)(F)F`, the melting point was 71 to 73 °C.

In turn, `Cc1cc2[nH]c(=O)c3ccccc3n2n1` came in with a melting point of 278 to 282 °C.

In turn, `COC(=O)C(N)c1ccc(OC)cc1` (configuration not stated) registered a melting point of 59 to 61 °C.

Compound `Cc1c(-c2ccncc2)n[nH]c1N` came in with a melting point of 160 to 162 °C.

For the compound `Cc1ccc(-c2nc(-c3ccccc3)sc2CC(=O)O)cc1`, the melting point fell in the range of 165 to 167 °C.

Compound `Cc1cccc(Cn2[nH]ccc2=NC(=O)CCl)c1` registered a melting point of 88 to 90 °C.

Take `O=C1Nc2c(cccc2C(F)(F)F)C1=O`: the melting point fell in the range of 187 to 189 °C.

Take `CCOC(=O)c1cnc(O)nc1C`: the melting point was 179 to 181 °C.

The compound `COc1ccc(OCC(=O)O)c(C=O)c1` came in with a melting point of 154 to 156 °C.

In turn, `NN1CCN(C(c2ccccc2)c2ccccc2)CC1` had a melting point of 108 to 110 °C.

As to `O=C(O)c1c2c(nc3ccccc13)C(=Cc1cccs1)CCC2`, the melting point lay in the range of 176 to 178 °C.

Consider `Cc1cn2c(n1)CCC(N)C2` (configuration not stated), for which the melting point lay in the range of 49 to 51 °C.

Usually melting point stands for the temperature, or range, at which the solid turns liquid.
